Literature values as cited in publication PMC6344942 (SLAS discovery : advancing life sciences R & D, 2017).
Read-outs that look alike come from different tables or passages of the source.

Molecular target: Ubc9 (Homo sapiens, UniProt P63279)
Sequence (P63279 whole entry): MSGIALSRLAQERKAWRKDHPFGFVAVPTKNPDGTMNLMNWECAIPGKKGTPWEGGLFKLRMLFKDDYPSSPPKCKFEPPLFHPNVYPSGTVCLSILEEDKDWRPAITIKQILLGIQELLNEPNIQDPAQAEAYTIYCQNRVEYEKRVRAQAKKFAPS

Row | Compound | IC50 (prevents transfer of SUMO from Ubc9~SUMO thioester to substrate) | IC50 (Ubc9 inhibitor)
1 | O=c1cc(-c2ccc(O)c(O)c2O)oc2ccccc12 [Compound 2-D08, 2-D08] | 6 µM | –
2 | COC(=CC(=O)O)C1c2cc3ccc(-c4ccc5cc6c(c(O)c5c4O)C(=O)CC(C)(O)C6C(=CC(=O)O)OC)c(O)c3c(O)c2C(=O)CC1(C)O (centres unmarked) [spectomycin B1] | – | 4.4 µM
